The nature of data set [1]: Water solubility of the tetrapyrrole (qualitative). Type of data set: physicochemical.
Another data set deals with His-containing maquette. Briefly: Absorption spectra of porphyrin with His-containing maquette. Type of data set: binding. As to conditions: 4 μM porphyrin, 2 μM maquette. An excerpt:
(§1) The structural requirements for tetrapyrrole self-assembly in aqueous solution were first tested with Zn tetraphenyl porphyrins. The solubility in polar and non-polar environments was adjusted through combinations of hydrophobic and hydrophilic groups at the meso positions. Zn tetrapyrrole pigments discussed in this text are abbreviated with bold numbers, with full chemical names given in the Experimental section and structures illustrated in the figures. […] Thus, one non-polar edge of a Zn porphyrin was sufficient to provide facile binding.
(§2) Blue, green and red spectra correspond to no maquette, His-free maquette or His-containing maquette, respectively. Panel (A) and (B) show spectra for 4 μM porphyrins (1) or (2) respectively with 2 μM maquette, when present.
(§3) Protein solutions were prepared in CHES buffer (20 mM, 150 mM KCl, pH 9.0). Binding was monitored by UV/Vis Soret band absorbance on a Varian Cary-50 spectrophotometer at room temperature in a 1 cm path quartz cuvette. Secondary structure was monitored by CD spectroscopy (Aviv Model 410) at 25 °C with a 1 mm path quartz cuvette. Thermal denaturation was followed by monitoring the ellipticity at 222 nm every 5 °C after 15 minutes of equilibration. Melting temperatures were calculated using a Boltzmann equation with one term for each observed transition.

Data set [2] relates to His-free control maquette. Briefly: Absorption spectra of porphyrin with His-free control maquette. Conditions: 4 μM porphyrin, 2 μM maquette. The data set is classed as binding.
Excerpt: as §1, §2, §3

The subject of data set [3] is His-containing four-helix maquette (histidines at positions 7 and 112). Kind of data set: Cofactor binding titration into His maquette, UV/Vis spectra analysed by SVD. Conditions: for comparative binding affinity, in words: maquette, Fig. 4; for Kd: CHES buffer pH 9.0, 25 °C, SVD fit of spectral titration, read-out: Kd (dissociation constant for each His site).
Excerpt: To determine the acceptable range and pattern of hydrophobic vs. hydrophilic perimeters for Zn porphyrins, we synthesized all permutations of phenyl and carboxyphenyl tetra meso substituents (Fig. 3 and 4). The visible spectral changes that occurred as these porphyrins were titrated into a His maquette solution were fitted to a simple binding model with a single dissociation constant (K d) for each His site using singular value decomposition.[16] […] At least one hydrophobic and one hydrophilic group substitution is necessary for porphyrin ligating to the maquettes with nanomolar affinities.
as §3
Pigment stock solutions were weighed out and solubilized in dimethylsulfoxide to give concentrations of 1 mM Zn porphyrins, 1 mM chlorin (11), 500 μM chlorin (12), and 2 mM chlorin (13). Binding of Zn porphyrins shift the Soret peak from 422 nm to 432 nm. Binding of chlorins shift the Soret band from 415 nm to 423 nm for (12), 411 nm to 425 nm for (13), and 409 nm to 417 nm for (11). Dissociation constants (K d values) were determined as follows. To 1 ml of protein solution at 25 °C, 1 μl additions of 0.2 (porphyrin) or 0.1 (chlorin) equivalent aliquots were added successively to obtain a spectrum from 300 to 700 nm. At 1 equivalent of cofactor the DMSO concentration is 1%. Titrations typically ended at 4 equivalents of cofactor. […] The amplitudes of the first two principle components as a function of total pigment added fit well to a mathematical model of a single dissociation constant for each protein binding site to generate fit spectral extinction coefficients at each wavelength for the unbound and bound pigment spectra as well as values and error estimates for the dissociation constants.

A further data set concerns protein maquette. Briefly: Stopped-flow mixing of tetrapyrrole and maquette (binding kinetics). As to conditions: for binding speed, in words: stopped-flow mixing. The method, then: Tetrapyrrole and protein were added to separate syringes of an OLIS RSM 1000 stopped flow spectrophotometer, which takes a full visible spectrum every millisecond through a 2 cm flow cell after rapid (∼2 ms deadtime) mixing. Temperature was controlled with a Fischer-Scientific IsoTemp 3031 water bath. Individual wavelengths were selected for further kinetic analysis. All experiments were performed in triplicate, and the data were averaged together for further analysis.
Title: Design and engineering of water -soluble light-harvesting protein maquettes Goutham Kodali, Joshua A. Mancini, Lee A. Solomon, Tatiana Esipova, Nicholas Roach, Christopher J. Hobbs, Pawel Wagner, Olga A. Mass, Kunche Aravindu, Jonathan E. Barnsley, Keith C. Gordon, David L. Officer, P. Leslie Dutton and Christopher C. Moser*
Figure S1: Proliferating carbox ylic groups on the 15- porph yrin substituent leads to faster […]
Conditions: 2 µ M of protein maquette in 20 mM CHES, 150 mM KCl mixed with one equivalent of porphyrin, either 5- phen yl-15-carbox y phen ylporph yrin [9] (red) or 5- phen yl -15- Newkome phen ylporphyrin [10] (green).
Normalized absorbance i ncreas e with time in seco nds.

The next data set has as its system maquette. Kind of data set: Thermal denaturation of maquette by circular dichroism at 222 nm. Conditions: 2 μM maquette with 2 equivalents of cofactor. The method, then: Fig. 7 Thermal stability of the maquette increased upon tetrapyrrole binding. Circular dichroism at 222 nm monitors alpha helical folding for 2 μM maquette without (blue) or with (red) 2 equivalents of (11) as a function of temperature.
as §3

The Kd is the constant that tells how readily two partners part at equilibrium.

Take `O=S(=O)([O-])c1ccc(-c2c3nc(c(-c4ccc(S(=O)(=O)[O-])cc4)c4ccc([n-]4)c(-c4ccc(S(=O)(=O)[O-])cc4)c4nc(c(-c5ccc(S(=O)(=O)[O-])cc5)c5ccc2[n-]5)C=C4)C=C3)cc1.[Zn+2].[Zn+2].[Zn+2]` [compound 1, Zn(II) 5,10,15,20-tetra(4-sulphonatophenyl)porphyrin]: the “water solubility, in words” value in data set [1] is listed as “highly water-soluble”. Besides, the “association with His-containing maquette (Soret spectral change)” value in the data set on His-containing maquette is “does not associate with either maquette”. Besides, the “association with His-free maquette (Soret spectral change)” value in data set [2] was “does not associate with either maquette”. On to `O=S(=O)([O-])c1ccc(-c2c3nc(c(-c4ccc(S(=O)(=O)[O-])cc4)c4ccc([n-]4)c(-c4ccc(S(=O)(=O)[O-])cc4)c4nc(c(-c5ccccc5)c5ccc2[n-]5)C=C4)C=C3)cc1.O=S(=O)([O-])c1ccc(-c2c3nc(c(-c4ccc(S(=O)(=O)[O-])cc4)c4ccc([n-]4)c(-c4ccc(S(=O)(=O)[O-])cc4)c4nc(c(-c5ccccc5)c5ccc2[n-]5)C=C4)C=C3)cc1.[Zn+2].[Zn+2].[Zn+2].[Zn+2].[Zn+2]` [compound 2, Zn(II) 5,10,15-tri(4-sulphonatophenyl)-5-phenylporphyrin], for which, in the data set with His-containing maquette, the “association with His-containing maquette (Soret spectral change)” value is given as “indicative of histidine ligation”. The “association with His-free maquette (Soret spectral change)” value in data set [2] is reported as “partial association of the tetrapyrrole with the maquette”. Consider `C1=Cc2nc1c(-c1ccccc1)c1ccc([n-]1)c(-c1ccccc1)c1nc(c(-c3ccccc3)c3ccc([n-]3)c2-c2ccccc2)C=C1.[Zn+2]` [compound 3, Zn(II) 5,10,15,20-tetraphenylporphyrin, reference compound], for which the “comparative binding affinity, in words” value in data set [3] is listed as “too weak to measure accurately”.

Turning to `O=C(O)c1ccc(-c2c3nc(c(-c4ccccc4)c4ccc([n-]4)c(-c4ccccc4)c4nc(c(-c5ccccc5)c5ccc2[n-]5)C=C4)C=C3)cc1.[Zn+2]` [compound 4, Zn(II) 5-4-(carboxyphenyl)-10,15,20-triphenylporphyrin], the “affinity relative to (5), (6) and (7)” value in data set [3] (His maquette, estimated) is listed as “about two orders of magnitude tighter”. Turning to `O=C(O)c1ccc(-c2c3nc(c(-c4ccc(C(=O)O)cc4)c4ccc([n-]4)c(-c4ccc(C(=O)O)cc4)c4nc(c(-c5ccc(C(=O)O)cc5)c5ccc2[n-]5)C=C4)C=C3)cc1.[Zn+2]` [compound 8, Zn(II) 5,10,15,20-tetra(4-carboxyphenyl)porphyrin], in data set [3], the “comparative binding affinity, in words” value is given as “too weak to measure accurately”. As to `O=C(O)c1ccc(-c2c3nc(cc4ccc([n-]4)c(-c4ccccc4)c4nc(cc5ccc2[n-]5)C=C4)C=C3)cc1.[Zn+2]` [compound 9, Zn(II) 5-phenyl-15-(p-carboxyphenyl)porphyrin], in the data set with protein maquette (stopped flow, 2 µM maquette, one equivalent of porphyrin, 20 mM CHES, 150 mM KCl), the “time for binding equilibrium to reach completion” value was 20 min. As for `Cc1ccc(-c2c3nc(cc4ccc([nH]4)c(-c4ccc(C(=O)O)cc4)c4nc(cc5ccc2[nH]5)C(C)(C)C4)C=C3)cc1` [compound 11, 15-(4-carboxyphenyl)-17,18-dihydro-18,18-dimethyl-5-p-tolylporphyrin], the “binding speed, in words” value in the data set on protein maquette is “binds much faster than the similarly substituted porphyrin (9)”. In addition, the Kd in data set [3] (His maquette) was found to be 80 ± 10 nM. The “structure stabilization corresponding to the Tm shift” value in the data set on maquette turned out to be 6.8 kcal mol^–1. Further, the “thermal mid point transition of α-helical structure (Tm) upon chlorin binding” value in the data set on maquette (46 °C without cofactor) was found to be 61 °C. On to `CC1(C)Cc2nc1cc1cc(C#Cc3ccccc3)c(cc3nc(cc4ccc([n-]4)c2-c2ccc(C(=O)O)cc2)C=C3)[n-]1.[Zn+2]` [compound 12, Zn(II) 15-(4-carboxyphenyl)-17,18-dihydro-18,18-dimethyl-3-(phenylethynyl)porphyrin], for which the “lowering of affinity relative to (11)” value in data set [3] (His maquette, Kd of (12) vs (11)) was found to be 4.5 fold.

In the case of `C=Cc1c(C)c2[n]3c1=CC1=[N+]4C(=Cc5c(C)c6c7[n]5[Zn-2]34[N+]3=C(C=2)[C@@H](C)[C@H](CCC(=O)O)C3=C7[C@@H](C(=O)OC)C6=O)C(CC)=C1C` (stereo partly drawn) [compound 13, Zn pheophorbide a], the equilibrium dissociation constant (Kd) in data set [3] (His maquette) was 4 ± 3 nM. Regarding “Zn(II) 5-phenyl-15-(p-carboxyphenyl)porphyrin with first generation Newkome dendrimer [compound 10]”, the “binding speed, in words” value with protein maquette is “few ms timescale”. The “water solubility, in words” value in data set [1] was “substantially increased the water solubility”. Further, the Kd in data set [3] (His maquette) came to 250 ± 47 nM.

Source of the values: article PMC5330312, “Design and engineering of water-soluble light-harvesting protein maquettes” (Chemical Science, 2016).
